Key:
Del19/T790M/C797S EGFR = assay: EGFR degradation HTRF assay in H1975-clone #28 (DTC) cells; format: cell-based; settings: H1975 # 28 DTC (Del19/T790M/C797S), 16h treatment; for DC50: HTRF; for Dmax (%): maximum percentage of degradation
Text: (§1) H1975-clone #28(Del19/T790M/C797S, or abbr: DTC), H1975-clone #23(Del19/C797S, or abbr: DC), H1975-clone #25(L858R/T790M/C797S, or abbr: LTC) and H1975-clone #8 (L858R/C797S, or abbr: LC). EGFR-Del19:T790M/C797S, EGFR-Del19/C797S, EGFR-L858R/T790M/C797S and EGFR-L858R/C797S were stably expressed in H1975 cell lines by lentivirus-mediated over-expression, respectively. The EGFR over-expressed cells then underwent knockout, in which the EGFR targeting sgRNA was designed to only target the endogenous EGFR copies and preserve the exogenous EGFR copies. Followed by the knockout, the edited H1975 cells were seeded in 96 well plates at the concentration of […], cultured for about 2 weeks to allow single clones formation. The formed clones were screened by DNA sequencing and whole exon sequencing analysis for the desired edition. H1975-clone #28, H1975-clone #23, H1975-clone #25 and H1975-clone #8 were finally confirmed as homozygous Del19/T790M/C797S EGFR, Dell9/C797S EGFR, L858R/T790M/C797S EGFR and L858R/C797S EGFR clones, respectively.
(§2) H1975-#25, H1975-#28, H1975-#23 and H1975-#8 cells are treated with compounds diluted in 0.2% DMSO cell culture medium on day 2, incubate for 16h, 37° C., 5% CO2. the final concentration of compounds in all assay is start with 10 uM, 5-fold dilution, total 8 doses were included.
(§3) After 16h treatment, add HTRF lysis buffer to each well; seal the plate and incubate 1 hour at room temperature on a plate shaker; Once the cells are lysed, 16 μL of cell lysate are transferred to a PE 384-well HTRF detection plate; 4 μL of pre-mixed HTRF antibodies are added to each well; Cover the plate with a plate sealer, spin 1000 rpm for 1 min, Incubate overnight at room temperature; Read on BMG PheraStar with HTRF protocol (337 nm-665 nm-620 nm).
(§4) The IC50 (DC50) value of a compound can be obtained by fitting the following equation
(§5) Y=Bottom+(TOP−Bottom)/(1+((IC50/X)^hillslope))
(§6) Wherein, X and Y are known values, and IC50, Hillslope, Top and Bottom are the parameters obtained by fitting with software. Y is the inhibition percentage (calculated from the equation), X is the concentration of the compound: IC50 is the concentration of the compound when the 50% inhibition is reached. The smaller the IC50 value is, the stronger the inhibitory ability of the compound is. Vice versa, the higher the IC50 value is, the weaker the ability the inhibitory ability of the compound is: Hillslope represents the slope of the fitted curve, generally around 1*; Bottom represents the minimum value of the curve obtained by data fitting, which is generally 0%±20%; Top represents the maximum value of the curve obtained by data fitting, which is generally 100%±20%. The experimental data were fitted by calculating and analyzing with Dotmatics data analysis software.

L858R/T790M/C797S EGFR = target: T1, L858R/T790M/C797S EGFR (Homo sapiens, UniProt P00533, C797S/L858R/T790M); assay: EGFR degradation HTRF assay in H1975-clone #25 (LTC) cells; format: cell-based; settings: 16h treatment; for DC50: H1975 # 25-LTC (L858R/T790M/C797S), HTRF; for Dmax: NCI-H1975, H1975 # 25-LTC (L858R/T790M/C797S), maximum percentage of degradation
T1 construct: expressed in transfected cells; host or cells: H1975 clone #25 (lentiviral over-expression, endogenous EGFR knocked out by sgRNA)
T1 sequence (P00533 25-1210 T790M/C797S/L858R): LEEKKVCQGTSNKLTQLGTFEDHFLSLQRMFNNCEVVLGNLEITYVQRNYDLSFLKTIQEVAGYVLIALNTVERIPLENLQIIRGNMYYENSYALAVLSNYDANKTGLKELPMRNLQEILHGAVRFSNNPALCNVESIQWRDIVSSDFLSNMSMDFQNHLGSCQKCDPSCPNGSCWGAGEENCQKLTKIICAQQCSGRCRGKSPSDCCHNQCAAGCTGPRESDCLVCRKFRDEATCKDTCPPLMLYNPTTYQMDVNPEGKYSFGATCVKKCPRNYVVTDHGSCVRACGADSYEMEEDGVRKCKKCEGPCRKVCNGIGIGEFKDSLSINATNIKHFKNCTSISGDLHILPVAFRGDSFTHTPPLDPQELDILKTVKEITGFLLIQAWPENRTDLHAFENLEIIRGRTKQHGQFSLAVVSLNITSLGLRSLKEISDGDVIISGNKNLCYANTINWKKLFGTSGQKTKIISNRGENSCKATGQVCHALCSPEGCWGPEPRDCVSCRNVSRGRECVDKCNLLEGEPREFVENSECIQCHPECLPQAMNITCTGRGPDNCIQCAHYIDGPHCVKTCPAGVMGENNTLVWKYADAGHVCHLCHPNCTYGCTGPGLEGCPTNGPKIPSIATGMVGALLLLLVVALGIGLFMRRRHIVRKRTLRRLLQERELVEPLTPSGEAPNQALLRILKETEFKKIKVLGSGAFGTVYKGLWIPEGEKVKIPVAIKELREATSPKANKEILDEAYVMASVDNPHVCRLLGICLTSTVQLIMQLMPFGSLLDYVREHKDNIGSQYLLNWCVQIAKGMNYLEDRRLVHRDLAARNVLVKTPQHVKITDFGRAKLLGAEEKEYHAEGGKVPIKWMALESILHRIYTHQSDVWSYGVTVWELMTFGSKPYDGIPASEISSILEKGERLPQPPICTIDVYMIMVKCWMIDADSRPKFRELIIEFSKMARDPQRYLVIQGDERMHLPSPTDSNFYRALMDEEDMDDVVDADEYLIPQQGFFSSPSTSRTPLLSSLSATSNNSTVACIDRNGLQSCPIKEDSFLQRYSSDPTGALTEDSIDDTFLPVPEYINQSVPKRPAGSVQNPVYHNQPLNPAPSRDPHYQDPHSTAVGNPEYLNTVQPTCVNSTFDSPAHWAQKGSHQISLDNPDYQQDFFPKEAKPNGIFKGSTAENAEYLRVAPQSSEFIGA
Text: as §1, §2, §3, §4, §5, §6

| Compound | DC50 (Del19/T790M/C797S EGFR) [nM] | Dmax (%) (Del19/T790M/C797S EGFR) | DC50 (L858R/T790M/C797S EGFR) [nM] | Dmax (L858R/T790M/C797S EGFR) [%] |
| --- | --- | --- | --- | --- |
| Cc1cc2cc(n1)-c1cnn(C)c1OCCC[C@@H](C)CN1/C(=N/C2=O)Nc2ccc(N3CCN(C4CCN(c5cc(F)c([C@H]6CCC(=O)NC6=O)c(F)c5)CC4)CC3)cc21 [Example 324, (R)-3-(2,6-difluoro-4-(4-(4-((R,E)-1^1,26,7-trimethyl-3-oxo-5^2,5^3-dihydro-1^1H,5^1H-11-oxa-4-aza-5(2, 1)-benzo[d]imidazola-2(2,4)-pyridina-1(4,5)-pyrazolacycloundecaphane-5^6-yl)piperazin-1-yl)piperidin-1-yl)phenyl)piperidine-2,6-dione] | 0.859 | 78.7 | 1.02 | 91.1 |
| Cc1cc2cc(n1)-c1cnn(C)c1OCCC[C@@H](C)CN1/C(=N/C2=O)Nc2ccc(C(=O)N3CC[C@@H](NCCc4cc(F)c([C@H]5CCC(=O)NC5=O)c(F)c4)C3)cc21 [Example 296, (R)-3-(2,6-difluoro-4-(2-(((R)-1-((R,E)-1^1,2^6,7-trimethyl-3-oxo-5^2,5^3-dihydro-1^1H,5^1H-11-oxa-4-aza-5(2,1)-benzo[d]imidazola-2(2,4)-pyridina-1(4,5)-pyrazolacycloundecaphane-5′-carbonyl)pyrrolidin-3-yl)amino)ethyl)phenyl)piperidine-2,6-dione] | 0.842 | 51.36 | 0.707 | 84.8 |
| Cc1cc2cc(n1)-c1cnn(C)c1OCCC[C@@H](C)CN1/C(=N/C2=O)Nc2ccc(C(=O)N(C)CCN3CCN(c4cc(F)c([C@H]5CCC(=O)NC5=O)c(F)c4)CC3)cc21 [Example 280, (R,E)-N-(2-(4-(4-((R)-2,6-dioxopiperidin-3-yl)-3,5-difluorophenyl)piperazin-1-yl)ethyl)-N,1^1,2^6,7-tetramethyl-3-oxo-5^2,5^3-dihydro-1^1H,5^1H-11-oxa-4-aza-5(2,1)-benzo[d]imidazola-2(2,4)-pyridina-1(4,5)-pyrazolacycloundecaphane-5^6-carboxyamide] | 0.657 | 77.24 | 0.44 | 88.5 |
| CO[C@H]1CN(CCc2cc(F)c([C@H]3CCC(=O)NC3=O)c(F)c2)CC[C@H]1N(C)C(=O)c1ccc2c(c1)N1C[C@H](C)CCCOc3c(cnn3C)-c3cc(cc(C)n3)C(=O)/N=C/1N2 [Example 255, (R,E)-N—((3S,4R)-1-(4-((R)-2,6-dioxopiperidin-3-yl)-3,5-difluorophenethyl)-3-methoxypiperidin-4-yl)-N,1^1,2^6,7-tetramethyl-3-oxo-5^2,5^3-dihydro-1^1H,5^1H-11-oxa-4-aza-5(2,1)-benzo[d]imidazola-2(2,4) -pyridina-1(4,5)-pyrazolacycloundecaphane-5^6-carboxamide] | 0.566 | 81.82 | 0.599 | 91.1 |
| Cc1cc2cc(n1)-c1cnn(C)c1OCCC[C@@H](C)CN1/C(=N/C2=O)Nc2ccc(C(=O)N(C)CC(F)(F)C3CCN(CCc4cc(F)c([C@H]5CCC(=O)NC5=O)c(F)c4)CC3)cc21 [Example 275, (R,E)-N-(2-(1-(4-((R)-2,6-dioxopiperidin-3-yl)-3,5-difluorophenethyl)piperidin-4-yl)-2,2-difluoroethyl)-N,1^1,2^6,7-tetramethyl-3-oxo-5^2,5^3-dihydro-1^1H,5^1H-11-oxa-4-aza-5(2,1)-benzo[d]imidazola-2(2,4)-pyridina-1(4,5)-pyrazolacycloundecaphane-5^6-carboxamide] | 0.798 | 78.92 | 1.01 | 88.9 |
| Cc1cc2cc(n1)-c1cnn(C)c1OCCC[C@@H](C)CN1/C(=N/C2=O)Nc2ccc(C3CCN(CC4CCN(c5cc(F)c([C@H]6CCC(=O)NC6=O)c(F)c5)CC4)CC3)cc21 [Example 323, (R)-3-(2,6-difluoro-4-(4-((4-((R,E)-1^1,2^6,7-trimethyl-3-oxo-5^2,5^3-dihydro-1^1H,5^1H-11-oxa-4-aza-5(2,1)-benzo[d]imidazola-2(2,4)-pyridina-1(4,5)-pyrazolacycloundecaphane-5^6-yl)piperidin-1-yl)methyl)piperidin-1-yl)phenyl)piperidine-2,6-dione] | 1.03 | 49.97 | 1.03 | 63.9 |
| Cc1cc2cc(n1)-c1cnn(C)c1OCC[C@H]1C[C@@H]1CN1/C(=N/C2=O)Nc2ccc(N3CCN(C4CCN(c5ccc(C6CCC(=O)NC6=O)nc5C)CC4)CC3)cc21 (some centres unmarked) [Example 465, 3-(5-(4-(4-((7^1S,7^2R,E)-1^1,2^6-dimethyl-3-oxo-5^2,5^3-dihydro-1^1H,5^1H-10-oxa-4-aza-5(2,1)-benzo[d]imidazola-2(2,4)-pyridina-1(4,5)-pyrazola-7(1,2)-cyclopropanacyclodecaphane-5^6-yl)piperazin-1-yl)piperidin-1-yl)-6-methylpyridin-2-yl)piperidine-2,6-dione] | 0.319 | 90.39 | 0.472 | 94.8 |
| Cc1cc2cc(n1)-c1cnn(C)c1OCCC[C@@H](C)CN1/C(=N/C2=O)Nc2ccc(CN3CCN(C(=O)[C@@H]4CCN(c5cc(F)c([C@H]6CCC(=O)NC6=O)c(F)c5)C4)CC3)c(F)c21 [Example 59, (R)-3-(2,6-difluoro-4-((R)-3-(4-(((R,E)-5^7-fluoro-1^1,2^6,7-trimethyl-3-oxo-5^2,5^3-dihydro-1^1H,5^1H-11-oxa-4-aza-5(2,1)-benzo[d]imidazola-2(2,4)-pyridina-1(4,5)-pyrazolacycloundecaphane-5^6-yl)methyl)piperazine-1-carbonyl)pyrrolidin-1-yl)phenyl)piperidine-2,6-dione] | 1.48 | 78.58 | 2.92 | 82 |
| Cc1cc2cc(n1)-c1cnn(C)c1OCCC[C@@H](C)CN1/C(=N/C2=O)Nc2ccc(N3CCN(C(=O)[C@@H]4CN(c5cc(F)c([C@H]6CCC(=O)NC6=O)c(F)c5)CC4(C)C)CC3)cc21 [Example 326, (R)-3-(4-((S)-3,3-dimethyl-4-(4-((R,E)-1^1,2^6,7-trimethyl-3-oxo-5^2,5′-dihydro-1^1H,5^1H-11-oxa-4-aza-5(2,1)-benzo[d]imidazola-2(2,4)-pyridina-1(4,5)-pyrazolacycloundecaphane-5^6-yl)piperazine-1-carbonyl)pyrrolidin-1-yl)-2,6-difluorophenyl)piperidine-2,6-dione] | 1.71 | 81.61 | 1.88 | 88.9 |
| Cc1cc2cc(n1)-c1cnn(C)c1OCCC[C@@H](C)CN1/C(=N/C2=O)Nc2ccc(CN3CCN(C(=O)C4CN(c5ccc(F)c6c5n(C)c(=O)n6C5CCC(=O)NC5=O)C4)CC3)cc21 (stereo partly drawn) [Example 94, 3-(7-fluoro-3-methyl-2-oxo-4-(3-(4-(((R,E)-1^1,2^6,7-trimethyl-3-oxo-5^2,5^3-dihydro-1^1H,5^1H-11-oxa-4-aza-5(2,1)-benzo[d]imidazola-2(2,4)-pyridina-1(4,5)-pyrazolacycloundecaphane-5^6-yl)methyl)piperazine-1-carbonyl)azetidin-1-yl)-2,3-dihydro-1H-benzo[d]imidazol-1-yl)piperidine-2,6-dione] | 0.7 | 80.5 | 0.5 | 90.6 |
| Cc1cc2cc(n1)-c1cnn(C)c1OCCC[C@@H](C)CN1/C(=N/C2=O)Nc2ccc(C(=O)N(C)[C@H]3CCN(CCc4cc(F)c([C@H]5CCC(=O)NC5=O)c(F)c4)CC3(F)F)cc21 [Example 251, (R,E)-N—((S)-1-(4-((R)-2,6-dioxopiperidin-3-yl)-3,5-difluorophenethyl)-3,3-difluoropiperidin-4-yl)-N,1^1,2^6,7-tetramethyl-3-oxo-5^2,5^3-dihydro-1^1H,5^1H-11-oxa-4-aza-5(2,1)-benzo[d]imidazola-2(2,4)-pyridina-1(4,5)-pyrazolacycloundecaphane-5^6-carboxamide] | 0.611 | 80.86 | 0.888 | 85.5 |

— US20240342292A1, “Compounds for the Degradation of EGFR Kinase” (BeiGene Switzerland GmbH, priority 2021, published 2024)
